Like-named read-outs stand apart in the source and are kept apart here.
Tests used:
[1] = tested on: Gram-positive or Gram-negative bacterial strains; assay: MIC in pulmonary surfactant compared with CAMHB alone, whole strain panel; type: cell-based; details: up to 10% pulmonary surfactant vs CAMHB alone; any strain tested
Protocol: (§1) The bacterial strains used in this testing were part of the microbiological culture collection housed at AstraZeneca R&D Boston (AstraZeneca Research Collection, designated ARC). The panel of bacterial isolates used for this testing was comprised of five CLSI QC reference strains and the remainder were either recent clinical isolates expressing β-lactamases or isolates from the primary bacterial screening panels.
(§2) MIC values were determined using the CLSI broth microdilution methodology with slight variation. Stock compound mother plates were prepared and used to spot 2 μL aliquots of serial 2-fold drug dilutions to columns 1-11 of 96-well daughter plates using a Perkin-Elmer MiniTrak™ MultiPosition dispenser. […] An inoculum volume of 100 μL (5×10E^5 CFU/mL) in CAMHB containing 0, 1, 2.5, 5, or 10% pulmonary surfactant was added using a multichannel Finnpipette® to each well of the 96-well plate.
The minimum inhibitory concentration (MIC) values against each organism/drug combination were determined using broth microdilution methodology according to CLSI guidelines. The recommended reference bacterial strains for each test group and reference compounds were incorporated into each test. […]
MIC values for individual isolates were read visually. […]

[2] = tested on: P. aeruginosa; assay: MIC, CLSI broth microdilution in CAMHB with 0-10% pulmonary surfactant (avibactam fixed at 4 μg/mL in combination); type: cell-based, Pseudomonas aeruginosa
Protocol: as §1, §2
(§3) The minimum inhibitory concentration (MIC) values against each organism/drug combination were determined using broth microdilution methodology according to CLSI guidelines. The recommended reference bacterial strains for each test group and reference compounds were incorporated into each test. For Gram-negatives, the reference bacterial strains were Escherichia coli ATCC 25922, E. coli ATCC 35218, Klebsiella pneumoniae ATCC 700603, and Pseudomonas aeruginosa ATCC 27853. Staphylococcus aureus ATCC 29213 was the reference bacterial strain for the Gram-positives.
(§4) MIC values for individual isolates were read visually. The MICs for each compound or combination in pulmonary surfactant was compared to the compound or combination tested in CAMHB alone.

[3] = Serum and epithelial lining fluid (ELF) pharmacokinetics of ceftazidime-avibactam human simulated regimen in infected and uninfected mice; details: for fT > MIC: MIC 4, human simulated CAZ-AVI 2000-500 mg q8h 2 h infusion; for Kp at 16 h / Kp at 18.5 h / Kp at 22 h / Kp at 24 h: female, ICR, mouse, epithelial lining fluid (ELF) vs serum, ELF point Penetration Ratio, ELF vs serum, third dosing interval
Protocol: Pathogen-free, female ICR mice weighing approximately 25 g were acquired from Harlan Sprague Dawley, Inc. (Indianapolis, Ind.) and utilized throughout these experiments. Animals were maintained and used in accordance to National Research Council recommendations, and provided food and water ad libitum. Mice were rendered neutropenic with 100 and 250 mg/kg intraperitoneal injections of cyclophosphamide (Cytoxan®; Bristol-Myers Squibb, Princeton, N.J.) given one and four days prior to inoculation, respectively. Three days prior to inoculation, mice were also given a single 5 mg/kg intraperitoneal injection of uranyl nitrate. This produces a predictable degree of renal impairment to slow drug clearance. Two hours prior to the initiation of antimicrobial therapy, mice were lightly anesthetized using isofluorane (2.5% v/v in 100% oxygen carrier) until the respiratory rate decreased upon visual inspection. Pneumonia was induced by the instillation of 0.05 mL of a 10^7 CFU inoculum of the test isolate suspended in 3% mucin in normal saline. While the mouse is anesthetized, the inoculum is delivered into the animal's oral cavity, blocking the nares and holding the mouse in a vertical position. Aspiration of bacteria into the lungs occurred as the animals began to spontaneously respire.
In these studies, we utilized the previously determined dosing regimen described above. Confirmatory serum pharmacokinetic studies were undertaken in infected mice. For these studies, infected neutropenic mice were dosed with the above calculated regimen and groups of six mice ? were euthanized at multiple time points throughout a 24 h period to confirm target exposures blood was collected via cardiac puncture and the serum samples were stored at −80° C. until analysis. Pharmacokinetic studies were undertaken to describe the epithelial lining fluid concentrations in infected mice. For these studies, infected neutropenic mice were dosed with the above calculated regimen and groups of six mice were euthanized at multiple time points throughout the third dosing period (i.e. 16-24 h). Once euthanized, serum and BAL samples were collected as described above. Serum and BAL samples were stored at −80° C. until analysis.

[4] = tested on: S. aureus; assay: MIC, CLSI broth microdilution in CAMHB with 0-10% pulmonary surfactant (avibactam fixed at 4 μg/mL in combination); type: cell-based, Staphylococcus aureus
Protocol: as §1, §2, §3, §4

[5] = tested on: E. coli; assay: as above; type: cell-based; details: Escherichia coli
Protocol: as §1, §2, §3, §4

[6] = Protein binding, equilibrium dialysis chamber, LC-MS/MS; type: in vitro ADME
Protocol: Blood was separated from plasma using a cooled centrifuge. Samples were split and stored at −80° C.

NC(=O)[C@@H]1CC[C@@H]2CN1C(=O)N2OS(=O)(=O)[O-].[Na+] [avibactam, [(2S,5R)-2-carbamoyl-7-oxo-1,6-diazabicyclo[3.2.1]octan-6-yl]hydrogen sulfate]
MIC increase in pulmonary surfactant [1]: no MIC increases were observed
MIC ([2]; P. aeruginosa ARC3 (CLSI QC strain, ATCC 27853), surfactant 1%): >64 µg/mL
MIC ([2]; P. aeruginosa ARC3 (CLSI QC strain, ATCC 27853), surfactant 2.5%): >64 µg/mL
MIC ([2]; P. aeruginosa ARC3 (CLSI QC strain, ATCC 27853), surfactant 5%): >64 µg/mL
MIC ([2]; P. aeruginosa ARC3 (CLSI QC strain, ATCC 27853), surfactant 10%): >64 µg/mL
MIC ([2]; P. aeruginosa ARC545 (PAO1), surfactant 1%): >64 µg/mL
MIC ([2]; P. aeruginosa ARC545 (PAO1), surfactant 2.5%): >64 µg/mL
MIC ([2]; P. aeruginosa ARC545 (PAO1), surfactant 5%): >64 µg/mL
MIC ([2]; P. aeruginosa ARC545 (PAO1), surfactant 10%): >64 µg/mL
MIC ([2]; P. aeruginosa ARC2532 (Clinical isolate), surfactant 0%): >64 µg/mL
MIC ([2]; P. aeruginosa ARC2532 (Clinical isolate), surfactant 1%): >64 µg/mL
MIC ([2]; P. aeruginosa ARC2532 (Clinical isolate), surfactant 2.5%): >64 µg/mL
MIC ([2]; P. aeruginosa ARC2532 (Clinical isolate), surfactant 5%): >64 µg/mL
MIC ([2]; P. aeruginosa ARC2532 (Clinical isolate), surfactant 10%): >64 µg/mL
MIC ([2]; P. aeruginosa ARC2761 (Clinical isolate), surfactant 1%): >64 µg/mL
MIC ([2]; P. aeruginosa ARC2761 (Clinical isolate), surfactant 2.5%): >64 µg/mL
MIC ([2]; P. aeruginosa ARC2761 (Clinical isolate), surfactant 5%): >64 µg/mL
MIC ([2]; P. aeruginosa ARC2761 (Clinical isolate), surfactant 10%): >64 µg/mL
MIC ([2]; P. aeruginosa ARC3508 (derepressed AmpC), surfactant 0%): >64 µg/mL
MIC ([2]; P. aeruginosa ARC3508 (derepressed AmpC), surfactant 1%): >64 µg/mL
MIC ([2]; P. aeruginosa ARC3508 (derepressed AmpC), surfactant 2.5%): >64 µg/mL
MIC ([2]; P. aeruginosa ARC3508 (derepressed AmpC), surfactant 5%): >64 µg/mL
MIC ([2]; P. aeruginosa ARC3508 (derepressed AmpC), surfactant 10%): >64 µg/mL
MIC ([2]; Pseudomonas aeruginosa, ATCC27853, P. aeruginosa ARC3 (CLSI QC strain, ATCC 27853), surfactant 0%, read-out: MIC): > 64 µg/mL
MIC ([2]; Pseudomonas aeruginosa, P. aeruginosa ARC545 (PAO1), surfactant 0%, read-out: MIC): > 64 µg/mL
MIC ([2]; Pseudomonas aeruginosa, P. aeruginosa ARC2761 (Clinical isolate), surfactant 0%, read-out: MIC): > 64 µg/mL
fT > MIC ([3]; ELF, infected mice): 3%
fT > MIC ([3]; ELF, uninfected mice): 19%
fT > MIC ([3]; Serum, infected mice): 34%
fT > MIC ([3]; Serum, uninfected mice): 19%
Kp at 16 h ([3]; infected mice): 0.59
Kp at 18.5 h ([3]; infected mice): 0.66
Kp at 22 h ([3]; infected mice): 0.69
Kp at 24 h ([3]; infected mice): 0.8
Kp at 16 h ([3]; uninfected mice): 0.86
Kp at 18.5 h ([3]; uninfected mice): 0.74
Kp at 22 h ([3]; uninfected mice): 0.93
Kp at 24 h ([3]; uninfected mice): 0.95
MIC ([4]; S. aureus ARC12 (CLSI QC strain, ATCC 29213), surfactant 0%): >64 µg/mL
MIC ([4]; S. aureus ARC12 (CLSI QC strain, ATCC 29213), surfactant 1%): >64 µg/mL
MIC ([4]; S. aureus ARC12 (CLSI QC strain, ATCC 29213), surfactant 2.5%): >64 µg/mL
MIC ([4]; S. aureus ARC12 (CLSI QC strain, ATCC 29213), surfactant 5%): >64 µg/mL
MIC ([4]; S. aureus ARC12 (CLSI QC strain, ATCC 29213), surfactant 10%): >64 µg/mL
MIC ([4]; S. aureus ARC516 (MRSA, quinolone-resistant), surfactant 0%): >64 µg/mL
MIC ([4]; S. aureus ARC516 (MRSA, quinolone-resistant), surfactant 1%): >64 µg/mL
MIC ([4]; S. aureus ARC516 (MRSA, quinolone-resistant), surfactant 2.5%): >64 µg/mL
MIC ([4]; S. aureus ARC516 (MRSA, quinolone-resistant), surfactant 5%): >64 µg/mL
MIC ([4]; S. aureus ARC516 (MRSA, quinolone-resistant), surfactant 10%): >64 µg/mL
MIC ([5]; ATCC25922, E. coli ARC4 (CLSI QC strain, ATCC 25922), surfactant 0%): 32 µg/mL
MIC ([5]; ATCC25922, E. coli ARC4 (CLSI QC strain, ATCC 25922), surfactant 1%): 32 µg/mL
MIC ([5]; ATCC25922, E. coli ARC4 (CLSI QC strain, ATCC 25922), surfactant 2.5%): 32 µg/mL
MIC ([5]; ATCC25922, E. coli ARC4 (CLSI QC strain, ATCC 25922), surfactant 5%): 16 µg/mL
MIC ([5]; ATCC25922, E. coli ARC4 (CLSI QC strain, ATCC 25922), surfactant 10%): 16 µg/mL
MIC ([5]; ATCC35218, E. coli ARC016 (ATCC 35218, TEM-1), surfactant 0%): 16 µg/mL
MIC ([5]; ATCC35218, E. coli ARC016 (ATCC 35218, TEM-1), surfactant 1%): 16 µg/mL
MIC ([5]; ATCC35218, E. coli ARC016 (ATCC 35218, TEM-1), surfactant 2.5%): 16 µg/mL
MIC ([5]; ATCC35218, E. coli ARC016 (ATCC 35218, TEM-1), surfactant 5%): 16 µg/mL
MIC ([5]; ATCC35218, E. coli ARC016 (ATCC 35218, TEM-1), surfactant 10%): 16 µg/mL
MIC ([5]; E. coli ARC523 (W3110), surfactant 0%): > 64 µg/mL
MIC ([5]; E. coli ARC523 (W3110), surfactant 1%): > 64 µg/mL
MIC ([5]; E. coli ARC523 (W3110), surfactant 2.5%): > 64 µg/mL
MIC ([5]; E. coli ARC523 (W3110), surfactant 5%): > 64 µg/mL
MIC ([5]; E. coli ARC523 (W3110), surfactant 10%): > 64 µg/mL
MIC ([5]; E. coli ARC3666 (CTX-M-15, OXA-1/30, SHV-31, TEM-1), surfactant 0%): 8 µg/mL
MIC ([5]; E. coli ARC3666 (CTX-M-15, OXA-1/30, SHV-31, TEM-1), surfactant 1%): 8 µg/mL
MIC ([5]; E. coli ARC3666 (CTX-M-15, OXA-1/30, SHV-31, TEM-1), surfactant 2.5%): 8 µg/mL
MIC ([5]; E. coli ARC3666 (CTX-M-15, OXA-1/30, SHV-31, TEM-1), surfactant 5%): 8 µg/mL
MIC ([5]; E. coli ARC3666 (CTX-M-15, OXA-1/30, SHV-31, TEM-1), surfactant 10%): 8 µg/mL
MIC ([5]; E. coli ARC3690 (CTX-M-15, SHV-12), surfactant 0%): 16 µg/mL
MIC ([5]; E. coli ARC3690 (CTX-M-15, SHV-12), surfactant 1%): 16 µg/mL
MIC ([5]; E. coli ARC3690 (CTX-M-15, SHV-12), surfactant 2.5%): 16 µg/mL
MIC ([5]; E. coli ARC3690 (CTX-M-15, SHV-12), surfactant 5%): 16 µg/mL
MIC ([5]; E. coli ARC3690 (CTX-M-15, SHV-12), surfactant 10%): 16 µg/mL
fraction unbound [6]: 0.92
